Series [1] relates to human red blood cells (hRBCs). In words: Hemolysis. The series is classed as cell-based. Particulars: PBS buffer containing 8% hRBCs, 1 h, 37° C, absorbance 414 nm, triplicate. As for the experimental part: Fresh human red blood cells (hRBCs) from healthy donors were centrifuged at 800 × g and washed with phosphate-buffered saline (PBS) until the supernatant was clear. Twofold serial dilutions of the peptides in PBS were added to a 96-well plate, after which the hRBCs were added to obtain a final concentration of 8% (vol/vol). The samples were then incubated with mild agitation for 1 h at 37° C. The samples were then centrifuged at 800 × g for 10 min, and the absorbance of the supernatant was measured at 414 nm. All the measurements were performed in triplicate, and the percentages of hemolysis were calculated using equation 1: % hemolysis=[(A414 in peptide solution−A414 in PBS)/(A414 in […]−A414 in PBS)]×100 (1)
Where 100% hemolysis was defined as the absorbance measured from hRBCs exposed to 1% Triton X-100 and zero hemolysis was characterized using hRBCs alone in PBS [40].

In series [2] the test system is Staphylococcus epidermidis ATCC 12228. The series is classed as cell-based. The text has this:
(§1) The method for peptide synthesis has been described in detail previously. E. coli ATCC 25922 (LB media), P. aeruginosa ATCC 15692 (NB+0.5% NaCl media), Listeria monocytogenes ATCC 3710 (LB media), Staphylococcus epidermidis ATCC 12228 (LB media), and S. aureus ATCC 29213 (TSB media) were obtained from the American Type Culture Collection (Manassas, VA, USA). Bacillus subtilis KCTC 1998 (LB media), Salmonella typhimurium KCTC 1926 (NB media), and Proteus vulgaris KCTC 2433 (NB media) were obtained from the Korean Collection for Type Cultures (Jeollabuk-do, Korea). E. coli CCARM 1238 was received from the Culture Collection of Antibiotic Resistant Microbes at Seoul Women’s University, Korea. Drug-resistant P. aeruginosa 3543, 3904, 3547, and 4007 and S. aureus 3126, 0027, 5157, 1635, 4761, 5159, 3359, 2122, 1630, 1870, 3511, 5156, and 3518 were resistant strains isolated from patients with otitis media in a Chonnam National University’s hospital.
(§2) The antibacterial activities of AMPs (melittin, clavaspirin, and its analogs) and conventional antibiotic drugs (erythromycin, gentamicin, ampicillin, and piperacidin) were determined using microdilution assays. Bacterial cells were cultured at 37° C in appropriate culture media at pH 5.5 or pH 7.4 until collection during the mid-log phase and suspended in 10 mM sodium phosphate buffer (pH 5.5 or pH 7.4) supplemented with 10% culture medium. Thereafter, 2× serial dilutions of each peptide (0.25–128 μM) or antibiotic (0.25–256 μM) were added to sterile 96-well plates, and aliquots of cell suspension (5 × 10^5 colony forming units (cfu)/mL) were seeded into each well. The samples were then incubated at 37° C for 24 h. At the end of the incubation, the minimum inhibitory concentrations (MICs) of the peptides were determined using a VERSA Max microplate reader (Molecular Devices Co., Sunnyvale, CA, USA) at a wavelength of 600 nm. […] MIC values were calculated as the mean of 3 independent experiments conducted in triplicate.

Series [3] concerns Listeria monocytogenes ATCC 3710. The series is classed as cell-based.
Excerpt: as §1, §2

Series [4] deals with Bacillus subtilis KCTC 1998. The format is cell-based.
Excerpt: as §1, §2

A further series has as its system S. aureus ATCC 29213. The series is classed as cell-based, Staphylococcus aureus.
Excerpt: as §1, with “E. coli ATCC 25922 (LB media), P. aeruginosa ATCC 15692 (NB+0.5% NaCl media), Listeria monocytogenes ATCC 3710 (LB media), Staphylococcus epidermidis ATCC 12228 (LB media), and S. aureus ATCC 29213 (TSB media) were obtained from the American Type Culture Collection (Manassas, VA, USA).” left out
as §2

Series [5] can be described thus: Aggregation assay (light scattering). The format is physicochemical. To be noted: 10 mM sodium phosphate buffer; for Self-aggregation: light scattering ex 400 nm / em 400 nm, 12 h, 37° C, mean of three experiments. As for the experimental part:
Light scattering assays were performed with clavaspirin and its analogue peptides using a Perkin-Elmer LS55 fluorometer. Peptides were dissolved in 10 mM sodium phosphate buffer (pH 5.5 or pH 7.4) and incubated for 12 h at 37° C. Light scattering was excited at 400 nm and the emission was scanned at 400 nm.

Series [6] in a line: C18 RP-HPLC retention time as measure of hydrophobicity. The series is classed as physicochemical. To be noted: chromatographic, linear gradient of 10–60 acetonitrile containing 0.7% trifluoroacetic acid for 50 min, mean, used as measure of hydrophobicity. As for the experimental part:
Supplementary Table 1: Sequence, molecular mass, retention time, and hemolytic and cytotoxic activities of clavaspirin and its analogues
Designation Sequences Molecular Retention HC /HC a EC /EC b
The meanretention time was analyzed using C18 reversed phase-high-performance liquid chromatography (RP-HPLC).
Samples were run using a linear gradient of 10–60 acetonitrile, containing 0.7% trifluoroacetic acid for 50 min. aHemolytic activity was determined in PBS buffer containing 8% hRBCs. bEffective concentration in HaCaT cells was determined in DMEM buffer containing 10% FBS and 1% PS.

The subject of a further series is P. aeruginosa ATCC 15692. The format is cell-based, Pseudomonas aeruginosa.
Excerpt: as §1, with “E. coli ATCC 25922 (LB media), P. aeruginosa ATCC 15692 (NB+0.5% NaCl media), Listeria monocytogenes ATCC 3710 (LB media), Staphylococcus epidermidis ATCC 12228 (LB media), and S. aureus ATCC 29213 (TSB media) were obtained from the American Type Culture Collection (Manassas, VA, USA).” left out
as §2, with “Bacterial cells were cultured at 37° C in appropriate culture media at pH 5.5 or pH 7.4 until collection during the mid-log phase and suspended in 10 mM sodium phosphate buffer (pH 5.5 or pH 7.4) supplemented with 10% culture medium.” left out

The mark [7] stands for this setting: pH 5.5 (I), 10 mM sodium phosphate buffer, 10% LB, 37° C, 24 h, mean of 3 experiments.
The mark [8] stands for this setting: pH 7.4 (II), 10 mM sodium phosphate buffer, 10% LB, 37° C, 24 h, mean of 3 experiments.

Like-named read-outs stand apart in the source and are kept apart here. Ends that are not written are not given here.

Consider FKRFIGSVKHGIGHLVHHIGVAL-NH2 [CSP-3], for which the “HC10 (hemolytic activity)” value in series [1] was more than 400. Further, the “HC50 (hemolytic activity)” value in series [1] was more than 400. Moreover, the “MIC, S. epidermidis” value amounted to 4 µM in series [2] (ATCC 12228, 24 h, pH 5.5) and 8 µM in series [2] (ATCC 12228, 24 h, pH 7.4). Besides, the “MIC, L. monocytogenes” value in series [3] (ATCC 3710, 24 h, pH 5.5) is 16 µM; in series [3] (ATCC 3710, 24 h, pH 7.4), 8 µM. Moreover, the “MIC, B. subtilis” value was 8 µM in series [4] (KCTC 1998, 24 h, pH 5.5) and 16 µM in series [4] (KCTC 1998, 24 h, pH 7.4). Also, the “MIC, S. aureus” value stood at 8 µM against S. aureus ATCC 29213 (ATCC 29213, 24 h, pH 5.5) and 8 µM in the series with S. aureus ATCC 29213 (ATCC 29213, 24 h, pH 7.4). For the same substance, in series [5] (pH 7.4), the Self-aggregation result is on record as “aggregation increased”. The Retention time in series [6] was found to be 21.4 min. In addition, the “MIC, P. aeruginosa” value with P. aeruginosa ATCC 15692 (ATCC 15692, 24 h, pH 5.5) came to 32 µM; with P. aeruginosa ATCC 15692 (ATCC 15692, 24 h, pH 7.4), 32 µM.
Regarding FLRFIGSVKHGKGHLVHHIGVAL-NH2 [CSP-4], the “HC10 (hemolytic activity)” value in series [1] is more than 400. In series [1], the “HC50 (hemolytic activity)” value is reported as more than 400. Further, the “MIC, S. epidermidis” value in series [2] (setting [7]) turned out to be 4 µM; in series [2] (setting [8]), 8 µM. In addition, the “MIC, L. monocytogenes” value in series [3] (setting [7]) and in series [3] (setting [8]) was 4 µM in each case. Further, the “MIC, B. subtilis” value in series [4] (setting [7]) and in series [4] (setting [8]) was 4 µM each time. In addition, the “MIC, S. aureus” value in the series with S. aureus ATCC 29213 (setting [7]) and against S. aureus ATCC 29213 (setting [8]) was 8 µM each time. Moreover, the Self-aggregation result in series [5] (pH 5.5) and in series [5] (pH 7.4) was “very little self-aggregation” in each case. Moreover, in series [5] (pH 5.5 vs pH 7.4, light scattering), the “Effect of varying the pH on aggregation” value is “not affected”. Further, the Retention time in series [6] is listed as 20.2 min. Further, the “MIC, P. aeruginosa” value against P. aeruginosa ATCC 15692 (setting [7]) and in the series with P. aeruginosa ATCC 15692 (setting [8]) was 32 µM in each case.
